Measured values published in article PMC5562840, “TRPM6 and TRPM7 differentially contribute to the relief of heteromeric TRPM6/7 channels from inhibition by cytosolic Mg^2+ and Mg·ATP” (Scientific Reports, 2017).
Each block holds one compound with its values, some of them ahead of it.

Experiments:
mTRPM6 = biological target: T1, mTRPM6 (Mus musculus, UniProt Q8CIR4); assay: whole-cell patch clamp; […] inhibits currents; format: cell-based
T1 construct: gene Trpm6; full-length mTRPM6 (2028 aa) in pIRES2-EGFP, HEK 293 cells
T1 sequence (Q8CIR4 whole entry): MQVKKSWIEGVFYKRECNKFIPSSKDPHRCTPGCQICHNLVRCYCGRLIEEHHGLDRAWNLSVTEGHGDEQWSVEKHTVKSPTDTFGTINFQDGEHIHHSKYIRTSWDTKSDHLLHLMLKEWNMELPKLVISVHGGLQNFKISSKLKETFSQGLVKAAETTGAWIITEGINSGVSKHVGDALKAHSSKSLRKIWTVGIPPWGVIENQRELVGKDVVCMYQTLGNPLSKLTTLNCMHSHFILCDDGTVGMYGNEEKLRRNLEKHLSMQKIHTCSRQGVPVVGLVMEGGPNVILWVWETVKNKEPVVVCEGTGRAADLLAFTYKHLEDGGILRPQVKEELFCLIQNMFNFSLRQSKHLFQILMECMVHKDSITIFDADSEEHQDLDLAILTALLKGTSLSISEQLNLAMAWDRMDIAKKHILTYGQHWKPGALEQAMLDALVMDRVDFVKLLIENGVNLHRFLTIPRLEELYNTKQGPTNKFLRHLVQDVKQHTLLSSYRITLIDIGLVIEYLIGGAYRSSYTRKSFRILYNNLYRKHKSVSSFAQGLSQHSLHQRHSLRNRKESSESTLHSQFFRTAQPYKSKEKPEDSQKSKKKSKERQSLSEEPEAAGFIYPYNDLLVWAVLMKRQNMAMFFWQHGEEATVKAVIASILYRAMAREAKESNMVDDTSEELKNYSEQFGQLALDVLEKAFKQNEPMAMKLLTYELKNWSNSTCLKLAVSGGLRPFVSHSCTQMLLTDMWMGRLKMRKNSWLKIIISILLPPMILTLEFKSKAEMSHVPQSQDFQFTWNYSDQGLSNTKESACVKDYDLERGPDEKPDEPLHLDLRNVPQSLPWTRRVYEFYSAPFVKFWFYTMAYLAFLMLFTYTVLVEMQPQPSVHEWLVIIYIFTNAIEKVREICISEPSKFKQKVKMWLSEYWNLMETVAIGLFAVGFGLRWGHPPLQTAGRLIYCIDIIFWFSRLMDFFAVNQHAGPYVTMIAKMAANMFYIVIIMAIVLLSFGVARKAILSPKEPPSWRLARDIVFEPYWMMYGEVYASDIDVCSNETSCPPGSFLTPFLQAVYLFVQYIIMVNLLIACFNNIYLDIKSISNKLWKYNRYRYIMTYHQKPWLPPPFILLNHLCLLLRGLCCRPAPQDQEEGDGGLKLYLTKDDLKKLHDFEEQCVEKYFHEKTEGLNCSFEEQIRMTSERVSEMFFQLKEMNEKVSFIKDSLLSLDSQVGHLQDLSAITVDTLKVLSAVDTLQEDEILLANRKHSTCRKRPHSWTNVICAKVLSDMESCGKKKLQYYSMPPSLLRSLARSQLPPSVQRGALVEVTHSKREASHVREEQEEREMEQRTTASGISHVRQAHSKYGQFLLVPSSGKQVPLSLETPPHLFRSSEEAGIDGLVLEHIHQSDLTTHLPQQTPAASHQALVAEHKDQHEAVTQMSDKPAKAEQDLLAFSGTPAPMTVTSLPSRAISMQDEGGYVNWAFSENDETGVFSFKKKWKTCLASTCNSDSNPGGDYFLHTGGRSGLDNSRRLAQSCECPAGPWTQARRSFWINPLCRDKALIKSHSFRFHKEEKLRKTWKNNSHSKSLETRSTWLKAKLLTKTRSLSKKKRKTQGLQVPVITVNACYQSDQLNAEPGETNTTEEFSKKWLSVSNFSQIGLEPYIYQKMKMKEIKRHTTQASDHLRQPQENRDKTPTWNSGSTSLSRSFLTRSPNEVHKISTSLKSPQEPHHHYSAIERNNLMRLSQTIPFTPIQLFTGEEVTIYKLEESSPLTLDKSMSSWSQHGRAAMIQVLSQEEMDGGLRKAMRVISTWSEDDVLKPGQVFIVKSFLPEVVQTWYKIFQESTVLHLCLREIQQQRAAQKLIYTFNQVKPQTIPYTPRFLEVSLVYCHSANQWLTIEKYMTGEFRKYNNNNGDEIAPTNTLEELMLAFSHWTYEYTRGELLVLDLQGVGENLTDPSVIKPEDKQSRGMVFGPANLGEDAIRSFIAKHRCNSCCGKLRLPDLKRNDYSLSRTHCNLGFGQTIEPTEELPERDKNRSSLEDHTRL

[1] = biological target: mouse TRPM7 (mTRPM7) fused to a myc tag (mTRPM7-myc) (mouse) (UniProt Q923J1)
mouse TRPM7 (mTRPM7) fused to a myc tag (mTRPM7-myc) (mouse), sequence (Q923J1 whole entry, the tested form may be a part): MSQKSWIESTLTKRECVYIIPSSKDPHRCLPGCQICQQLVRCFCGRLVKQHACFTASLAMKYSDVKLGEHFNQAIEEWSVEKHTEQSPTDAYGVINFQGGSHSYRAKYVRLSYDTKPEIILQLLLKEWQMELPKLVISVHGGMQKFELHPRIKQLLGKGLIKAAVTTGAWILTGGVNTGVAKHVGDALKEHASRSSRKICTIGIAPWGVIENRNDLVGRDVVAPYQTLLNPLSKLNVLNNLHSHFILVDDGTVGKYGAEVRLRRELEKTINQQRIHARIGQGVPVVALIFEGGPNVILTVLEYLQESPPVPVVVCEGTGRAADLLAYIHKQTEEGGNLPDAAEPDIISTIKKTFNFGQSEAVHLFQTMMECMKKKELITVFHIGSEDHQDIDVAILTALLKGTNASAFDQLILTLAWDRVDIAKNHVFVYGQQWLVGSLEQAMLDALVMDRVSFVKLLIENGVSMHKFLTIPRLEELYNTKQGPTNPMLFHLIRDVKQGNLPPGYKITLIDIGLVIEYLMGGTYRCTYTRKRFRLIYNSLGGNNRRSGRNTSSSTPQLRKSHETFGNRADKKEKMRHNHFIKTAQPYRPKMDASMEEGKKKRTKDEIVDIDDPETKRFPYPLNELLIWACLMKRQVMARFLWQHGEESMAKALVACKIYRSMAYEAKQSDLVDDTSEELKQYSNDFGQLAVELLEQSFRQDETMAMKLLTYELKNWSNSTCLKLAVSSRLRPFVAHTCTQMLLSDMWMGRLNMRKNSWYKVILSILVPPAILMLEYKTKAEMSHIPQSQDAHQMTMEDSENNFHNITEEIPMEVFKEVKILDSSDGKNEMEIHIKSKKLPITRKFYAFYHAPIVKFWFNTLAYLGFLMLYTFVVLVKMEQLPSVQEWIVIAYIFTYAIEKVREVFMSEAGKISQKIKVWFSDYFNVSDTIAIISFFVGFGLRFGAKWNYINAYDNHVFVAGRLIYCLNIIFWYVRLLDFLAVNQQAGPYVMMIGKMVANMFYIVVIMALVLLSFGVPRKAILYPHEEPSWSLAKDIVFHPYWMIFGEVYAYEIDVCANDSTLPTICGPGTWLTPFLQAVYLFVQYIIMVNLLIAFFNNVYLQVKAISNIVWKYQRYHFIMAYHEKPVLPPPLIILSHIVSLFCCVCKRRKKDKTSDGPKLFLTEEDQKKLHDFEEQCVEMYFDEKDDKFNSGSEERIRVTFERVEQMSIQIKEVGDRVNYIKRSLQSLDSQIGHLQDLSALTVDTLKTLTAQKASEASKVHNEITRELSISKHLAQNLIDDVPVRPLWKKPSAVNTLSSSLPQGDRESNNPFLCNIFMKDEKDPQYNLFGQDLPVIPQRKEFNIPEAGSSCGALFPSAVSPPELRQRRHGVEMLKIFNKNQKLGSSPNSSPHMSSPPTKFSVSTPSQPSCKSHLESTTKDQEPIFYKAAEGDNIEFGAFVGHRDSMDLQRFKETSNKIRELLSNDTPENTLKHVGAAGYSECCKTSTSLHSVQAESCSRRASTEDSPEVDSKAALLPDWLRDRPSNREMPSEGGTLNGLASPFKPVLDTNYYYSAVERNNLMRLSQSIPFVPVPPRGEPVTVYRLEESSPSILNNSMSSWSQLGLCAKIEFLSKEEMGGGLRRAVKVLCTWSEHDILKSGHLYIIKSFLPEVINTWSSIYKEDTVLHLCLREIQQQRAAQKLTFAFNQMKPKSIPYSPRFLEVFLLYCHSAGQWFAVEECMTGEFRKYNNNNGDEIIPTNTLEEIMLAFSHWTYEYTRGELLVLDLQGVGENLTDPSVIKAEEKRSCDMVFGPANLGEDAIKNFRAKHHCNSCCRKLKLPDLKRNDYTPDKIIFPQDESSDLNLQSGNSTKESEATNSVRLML

mTRPM7 = biological target: T2, mTRPM7 (Mus musculus, UniProt Q923J1); assay: whole-cell patch clamp, intracellular dose response ([…] free Mg2+); format: cell-based
T2 construct: gene Trpm7; full-length mTRPM7 in pIRES2-EGFP, HEK 293 cells
T2 sequence (Q923J1 whole entry): as the sequence (Q923J1 whole entry, the tested form may be a part) above

Compound: c1ccc2c(c1)CCC[C@H]2Nc1nc2ccccc2[nH]1 [NS8593]
whole-cell patch clamp; 10 μM inhibits currents (mTRPM6): We noted that NS8593 caused a rapid irreversible inhibition of mTRPM6

whole-cell currents at break-in (pre-activated outward currents) in HEK 293 cells co-transfected with mTRPM6 and mTRPM7, against cells with mTRPM7 alone [1]: 10 fold
Compound: mouse TRPM6 with a C-terminal yellow fluorescent protein tag (mTRPM6-YFP), Q8CIR4 1-2028

Compound: Nc1ncnc2c1ncn2[C@@H]1O[C@H](COP(=O)(O)OP(=O)(O)OP(=O)(O)O)[C@@H](O)[C@H]1O [Mg·ATP]
IC50 (mTRPM7): 2930 µM
